Test results reported in patent US10214741B2, “Methods and compositions for inhibiting retinopathy of prematurity” (University of Utah Research Foundation, priority 2014, dated 2019).
“Also recorded” adds a separate entry of the source. Each block holds one molecule with its values, some of them ahead of it.

What was measured:
[1] = system: rat ROP model; assay: Lectin-stained retinal flat mounts, IVNV and AVA, rat ROP model (rat 50/10 OIR model); assay type: in vivo
[2] = biological target: T1, p-VEGFR2 (Homo sapiens, UniProt P35968); assay: Western blot of p-VEGFR2 in hRMVECs; assay type: cell-based; conditions: 30 minutes of EPO treatment
T1 construct: Dissected retinas and hRMVECs were lysed in radioimmunoprecipitation assay buffer; host or cells: hRMVECs
Source text: For siRNA transfection, hRMVECs at 70% confluency were transfected in six-well plates with siRNAs targeting human EPOR, VEGFR2, or STAT3 (Life Technologies, Carlsbad, Calif.) using Lipofectamine 2000 reagent (Invitrogen by Life Technologies, Carlsbad, Calif.). […]
Dissected retinas and hRMVECs were lysed in radioimmunoprecipitation assay buffer with 1:100 protease inhibitors (Roche Diagnostics, Indianapolis, Ind.) and 2 mmol/L sodium orthovanadate and were homogenized and centrifuged at 13,000 rpm (15,700 g) for 10 minutes at 4° C. Total protein in the supernatant fluid was quantified by a bicinchoninic acid assay (Pierce BCA; Thermo Fisher Scientific, Waltham, Mass.). […] Blots were visualized, and the relative densities of bands were calculated as described herein, using gel analysis software (UN-SCAN-IT gel, version 6.1; Silk Scientific, Orem, Utah). Relative activities were calculated as the ratio of phosphorylated to total protein or to β-actin and are expressed as fold difference compared with control. […]

[3] = system: p-EPOR; assay: Western blot of p-EPOR in hRMVECs; assay type: cell-based, human; conditions: 30 minutes of EPO treatment
Source text: (§1) hRMVECs (Cell Systems, Kirkland, Wash.) were maintained in EGM-2 endothelial growth medium (Lonza, Walkers-ville, MD) supplemented with 5% fetal bovine serum. Cells of passage 3 to 5 were used for experiments. […]
(§2) For siRNA transfection, hRMVECs at 70% confluency were transfected in six-well plates with siRNAs targeting human EPOR, VEGFR2, or STAT3 (Life Technologies, Carlsbad, Calif.) using Lipofectamine 2000 reagent (Invitrogen by Life Technologies, Carlsbad, Calif.). A silencer selective negative control siRNA was used as control.
(§3) For cell proliferation assays, hRMVECs were plated into 96-well plates at a density of 5000 cells per well. […] Cell number was measured with a Vybrant MTT cell proliferation assay kit (Life Technologies, Carlsbad, Calif.).
Dissected retinas and hRMVECs were lysed in radioimmunoprecipitation assay buffer with 1:100 protease inhibitors (Roche Diagnostics, Indianapolis, Ind.) and 2 mmol/L sodium orthovanadate and were homogenized and centrifuged at 13,000 rpm (15,700 g) for 10 minutes at 4° C. Total protein in the supernatant fluid was quantified by a bicinchoninic acid assay (Pierce BCA; Thermo Fisher Scientific, Waltham, Mass.). […] Blots were visualized, and the relative densities of bands were calculated as described herein, using gel analysis software (UN-SCAN-IT gel, version 6.1; Silk Scientific, Orem, Utah). […]

[4] = system: EPOR; assay: EPOR expression in hRMVECs (qPCR, Western blot); assay type: cell-based, human; conditions: overnight treatment; 20 ng/mL VEGFA or 10 IU/mL EPO; vs PBS
Source text: as §1, §2
Total RNA of cells was extracted by TRI Reagent (Sigma-Aldrich, St. Louis, Mo.). For dissected retinas, total RNA was extracted using an RNeasy mini kit (Qiagen, Valencia, Calif.). RNA was quantified using a NanoDrop spectrophotometer (Thermo Fisher Scientific, Waltham, Mass.). cDNA was generated with the use of a high-capacity cDNA archive kit (Life Technologies, Carlsbad, Calif.). qPCR was performed on a Mastercycler ep realplex system (Eppendorf, Hauppauge, N.Y.) with the use of SYBR Green master mix (Roche Diagnostics, Indianapolis, Ind.) and primers synthesized by the core research facility of the University of Utah. Expression levels for VEGFA were normalized to the mean value of internal control β-actin. […]
Dissected retinas and hRMVECs were lysed in radioimmunoprecipitation assay buffer with 1:100 protease inhibitors (Roche Diagnostics, Indianapolis, Ind.) and 2 mmol/L sodium orthovanadate and were homogenized and centrifuged at 13,000 rpm (15,700 g) for 10 minutes at 4° C. Total protein in the supernatant fluid was quantified by a bicinchoninic acid assay (Pierce BCA; Thermo Fisher Scientific, Waltham, Mass.). […] Blots were visualized, and the relative densities of bands were calculated as described herein, using gel analysis software (UN-SCAN-IT gel, version 6.1; Silk Scientific, Orem, Utah). Relative activities were calculated as the ratio of phosphorylated to total protein or to β-actin and are expressed as fold difference compared with control. At least six samples from each group were measured and analyzed.

[5] = system: severe ROP; conditions: weekly subcutaneous injections; preterm infants (n=102); cited from earlier work
[6] = system: hRMVECs; assay: VEGFA-induced hRMVEC proliferation assay (MTT); assay type: cell-based, human; conditions: 20 ng/mL VEGFA 24 hours; SU5416 5 μmol/L, AG490 10 μmol/L, siRNA transfection
Procedure: as §2
For cell proliferation assays, hRMVECs were plated into 96-well plates at a density of 5000 cells per well. At 24 hours after transfection with siRNA, cells were starved in serum-free medium for 24 hours and then were incubated with 20 ng/mL VEGFA or control PBS for another 24 hours. To inhibit VEGFR2 or STAT3 activation, cells were pretreated with 5 μmol/L of the VEGFR2 tryosine-kinase inhibitor semaxanib (SU5416), 10 μmol/L of the JAK2/STAT3 inhibitor AG490 (both from Sigma-Aldrich, St. Louis, Mo.), or dimethyl sulfoxide (DMSO) vehicle control for 1 hour before addition of VEGFA. Cell number was measured with a Vybrant MTT cell proliferation assay kit (Life Technologies, Carlsbad, Calif.).

[7] = system: hRMVECs; assay: TUNEL+ cells in hRMVECs; assay type: cell-based, human; conditions: vs. DMSO
[8] = system: ROP+SO model; assay: IVNV in rat ROP model rescued in 28% oxygen (ROP+SO model); assay type: in vivo; conditions: intraperitoneal, p18, vs. PBS
Source text: Activation of NADPH oxidase generally requires aggregation of a NOX isoform (NOX1-5, Duox1 or 2) with membrane bound p22phox; for NOX1-3 activation, aggregation with Rac1 and cytoplasmic subunits p47phox, p67phox or homologs is also required. Few studies address oxygen effects on NADPH oxidase regulated signaling in ROP or development. Studying NADPH oxidase in vivo is also complicated, because 1) of compensation from NOX isoforms or homologs, which differ in different tissues, and 2) most inhibitors are not specific. In this example, oxygen stresses were varied by using 3 different OIR models: ROP and ROP+SO models in rat and OIR model in mouse. NADPH oxidase-induced signaling in ECs was targeted by reducing leukocyte/macrophages, which generate ROS through NADPH oxidase, or with a transgenic mouse. In rat ROP and ROP+SO models, macrophages ˜75% (FIG. 7A) were reduced with 1 uL intravitreal clodronate). […] Macrophages have multiple effects on angiogenesis including through non-NADPH oxidase mechanisms, so a more specific method was used to study NADPH oxidase-related signaling. NOX 1, 2, 4 are known to be involved in pathologic retinal angiogenesis; NOX2 is in macrophages and ECs. Therefore p47phox−/− mice were used to reduce NADPH oxidase activation from NOX 1-3. […]
7 experiments were conducted to accomplish three specific objectives. […] Pup weights were monitored. […]

[9] = system: p-STAT3; assay: Western blot of p-STAT3 in hRMVECs; assay type: cell-based, human; conditions: VEGFA stimulation
Procedure: hRMVECs (Cell Systems, Kirkland, Wash.) were maintained in EGM-2 endothelial growth medium (Lonza, Walkers-ville, MD) supplemented with 5% fetal bovine serum. Cells of passage 3 to 5 were used for experiments. Confluent cells in six-well plates were starved for 16 hours and then treated with 20 ng/mL VEGFA or PBS for 24 hours for qPCR or 30 minutes for p-VEGFR2, p-EPOR, and p-STAT3.
as §2, §3
Dissected retinas and hRMVECs were lysed in radioimmunoprecipitation assay buffer with 1:100 protease inhibitors (Roche Diagnostics, Indianapolis, Ind.) and 2 mmol/L sodium orthovanadate and were homogenized and centrifuged at 13,000 rpm (15,700 g) for 10 minutes at 4° C. Total protein in the supernatant fluid was quantified by a bicinchoninic acid assay (Pierce BCA; Thermo Fisher Scientific, Waltham, Mass.). […] At least six samples from each group were measured and analyzed.

[10] = system: NOX4; assay: ROS generation mediated by NOX4 in hRMVECs; assay type: cell-based, human

T1 sequence (P35968 20-1356): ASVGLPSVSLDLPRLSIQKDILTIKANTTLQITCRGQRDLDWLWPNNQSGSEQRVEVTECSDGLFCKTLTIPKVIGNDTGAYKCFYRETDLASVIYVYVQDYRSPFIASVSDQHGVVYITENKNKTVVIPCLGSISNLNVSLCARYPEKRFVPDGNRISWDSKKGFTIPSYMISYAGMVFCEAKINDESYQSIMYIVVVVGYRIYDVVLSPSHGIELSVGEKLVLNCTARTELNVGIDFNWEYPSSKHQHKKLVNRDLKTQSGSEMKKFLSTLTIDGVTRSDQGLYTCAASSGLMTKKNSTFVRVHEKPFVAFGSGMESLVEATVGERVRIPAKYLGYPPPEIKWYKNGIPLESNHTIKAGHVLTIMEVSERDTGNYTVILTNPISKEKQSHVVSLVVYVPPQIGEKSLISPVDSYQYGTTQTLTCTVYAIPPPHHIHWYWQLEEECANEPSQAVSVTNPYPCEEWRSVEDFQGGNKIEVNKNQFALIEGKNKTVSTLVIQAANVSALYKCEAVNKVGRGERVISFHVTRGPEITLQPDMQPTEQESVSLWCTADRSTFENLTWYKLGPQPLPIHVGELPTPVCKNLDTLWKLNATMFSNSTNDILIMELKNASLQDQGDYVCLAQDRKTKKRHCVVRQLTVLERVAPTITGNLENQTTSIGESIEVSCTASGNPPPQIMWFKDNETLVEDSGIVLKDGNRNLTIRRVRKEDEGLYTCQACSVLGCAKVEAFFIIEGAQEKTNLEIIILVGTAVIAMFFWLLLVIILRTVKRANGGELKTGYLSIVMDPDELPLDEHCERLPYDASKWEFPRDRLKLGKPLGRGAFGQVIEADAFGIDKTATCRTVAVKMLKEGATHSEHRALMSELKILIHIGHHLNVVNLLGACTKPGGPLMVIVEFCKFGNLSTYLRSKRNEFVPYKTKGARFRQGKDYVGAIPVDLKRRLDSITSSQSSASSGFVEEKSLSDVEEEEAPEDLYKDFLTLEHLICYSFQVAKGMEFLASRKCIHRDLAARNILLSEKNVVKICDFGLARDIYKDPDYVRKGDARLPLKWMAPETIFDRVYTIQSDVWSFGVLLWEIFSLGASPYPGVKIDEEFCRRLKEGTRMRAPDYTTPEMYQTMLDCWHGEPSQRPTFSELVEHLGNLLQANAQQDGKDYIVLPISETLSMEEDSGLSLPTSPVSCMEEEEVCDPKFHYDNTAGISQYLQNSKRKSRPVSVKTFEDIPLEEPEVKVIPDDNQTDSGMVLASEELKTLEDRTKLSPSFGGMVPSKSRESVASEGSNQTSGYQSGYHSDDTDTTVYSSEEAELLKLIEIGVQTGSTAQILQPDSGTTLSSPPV

Molecule: erythropoietin [EPO]
Phase II IVNV ([1]; ROP model): did not reduce Phase II IVNV
PRVD in Phase I ([1]; delivered at early ages): restored PRVD in Phase I
restoration of developmental retinal vascularization ([1]; exogenous): 40%
p-VEGFR2 level [2]: did not increase p-EPOR and p-VEGFR2 levels
p-EPOR level [3]: did not increase p-EPOR and p-VEGFR2 levels
EPOR protein [4]: led to an increase in EPOR protein

Molecule: darbepoietin
occurrence of severe ROP [5]: neither increased nor reduced the occurrence of severe ROP

TUNEL+ cells [7]: increases TUNEL+ cells
Molecule: N#C/C(=C/c1ccc(O)c(O)c1)C(=O)NCc1ccccc1 [AG490]
VEGFA-induced hRMVEC proliferation [6]: reduced VEGFA-induced hRMVEC proliferation to baseline
IVNV [8]: inhibited Phase II IVNV in the ROP+SO; also recorded: reduced IVNV

Molecule: CO[C@@H]1[C@@H]2OP(=O)(O)OC[C@H]2O[C@H]1n1c(Sc2ccc(Cl)cc2)nc2c(N)ncnc21 [8CPT, 8CPT 2′OMe-cAMP]
VEGFA-induced p-STAT3 [9]: inhibits VEGF (V)-induced STAT3 activation
basal and VEGF-induced ROS generation [10]: inhibits VEGF (V)-induced STAT3 activation, B) basal and VEGF-induced ROS generation
